The source of these data is BindingDB's records for patent US20260062412 (Chugai Seiyaku Kabushiki Kaisha, 2026).

Each structure is given as a SMILES string. pIC50: −log10 of the molar value.

This assay concerns the target T1, Membrane-associated tyrosine- and threonine-specific cdc2-inhibitory kinase (Homo sapiens, UniProt Q99640).
T1 sequence (Q99640 whole entry): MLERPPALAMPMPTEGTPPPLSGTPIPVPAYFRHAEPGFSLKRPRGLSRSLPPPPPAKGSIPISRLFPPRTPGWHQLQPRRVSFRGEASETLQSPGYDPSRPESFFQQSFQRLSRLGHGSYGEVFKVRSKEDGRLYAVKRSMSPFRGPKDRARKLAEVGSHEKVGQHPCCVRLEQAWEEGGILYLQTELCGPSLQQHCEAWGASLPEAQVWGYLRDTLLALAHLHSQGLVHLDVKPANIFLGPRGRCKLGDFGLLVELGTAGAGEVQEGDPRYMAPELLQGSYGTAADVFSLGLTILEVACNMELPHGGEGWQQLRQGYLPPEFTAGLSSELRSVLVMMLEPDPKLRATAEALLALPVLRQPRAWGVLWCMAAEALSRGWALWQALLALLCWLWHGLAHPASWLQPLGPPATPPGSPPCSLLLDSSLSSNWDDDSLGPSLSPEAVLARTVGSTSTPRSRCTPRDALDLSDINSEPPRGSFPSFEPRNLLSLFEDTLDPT
As to the kind of experiment: Test for Binding to ATP Binding Site of MYT1. The method, then: Table 3-1 to 3-5: The binding capacity of each compound to the ATP binding site of MYT1 Kinase protein was evaluated. 5× Kinase Buffer A (manufactured by Thermo Fisher Scientific Inc., PV3189) was diluted to 5 times with Milli-Q water, thereby preparing 1× Kinase Buffer. Using 1× Kinase Buffer, MYT1 protein (manufactured by Carna Biosciences, Inc.) was diluted to a concentration of 0.005 μM and Eu-Anti-GST Antibody was diluted to a concentration of 1 μM. […] To a 96 well-plate, 2.5 μL of a compound diluted with DMSO was added. […] The mixture was well mixed and then allowed to stand at room temperature for 30 minutes. Thereafter, fluorescence wavelengths of 665 nm and 615 nm generated by irradiation with excitation light of 340 nm were detected using Envision (manufactured by PerkinElmer). The proportion of Tracer bound to MYT1 protein was calculated for every condition by dividing the intensity at the fluorescence wavelength of 665 nm by the intensity at the fluorescence wavelength of 615 nm.
Consider `N#C[C@H]1C[C@@H](Oc2cc3c(-c4cc(F)c(F)c5[nH]ncc45)c(N)c(=O)[nH]c3c3cccnc23)C1` [US20260062412, Compound C212], for which the pIC50 is 8.92.

Compound `CC[C@@H](C)Oc1cc2c(c3cccnc13)NC(=O)C(N)C2c1ccc(F)c2[nH]ncc12` (stereo partly drawn) [US20260062412, Compound C36] showed a pIC50 of 8.38. Against the preceding compound, the pIC50 is 0.54 log units lower.

The compound `Nc1c(-c2cc(F)c(F)c3[nH]ncc23)c2cc(O[C@H]3C[C@@H](F)C3)c3ncccc3c2[nH]c1=O` [US20260062412, Compound C213] showed a pIC50 of 9.08.
